Test results as given in US10828303B2, “Composition comprising combination of TRH analog with arundic acid, and pharmaceutically acceptable salt of arundic acid” (Brivention Pharmaceutical (Shanghai) Inc., priority 2016, dated 2020).
Where “and” joins values, the source holds several entries; their conditions need not be identical. Equal values may be shown once.

How the values were obtained:
[1] = test system: four-vessel occlusion model of rats; assay: Morris water maze Transfer test in four-vessel occlusion model; assay type: in vivo, rat; settings: 4-VO rats, oral 28 d: arundic acid 30, taltirelin 10, combination 10+3 mg/kg/day; for Residence time in Zone 3: Table 6
Method: The water temperature of the water maze during the experiment was kept at 23° C. […] A Transfer test was performed 3 days after the final administration of test drugs. For the Transfer test, the platform was removed, and the pool was filled with water to a water depth of 31 cm. To enable the rats to memorize surrounding various spatial arrangements, cues, such as posters and photographs, were placed on the wall. The cues always remained at the same locations during the experiment (FIG. 1: a plan view of Morris water maze, and the laboratory layout). Three days after the final administration of the test drug, the platform was removed and a Transfer test in which the pool was filled with water to a water depth of 31 cm was performed. […] Each rat was given only one trial, and the time was 180 seconds. The starting point was on the side opposite to the platform (see FIG. 1). In the Transfer test, the time spent in each Zone and the number of times the rats crossed over the platform location were determined. The behaviors of the rats in each trial were automatically analyzed with a CCD camera and the SMART (produced by Kyoto […]) behavioral analysis program by binarization of the white color of rats' fur and black ash color of the surrounding area. Significant differences between the groups in spatial memory according to the Morris water maze method were determined by the nonparametric Dunnett's multiple comparison test. 6) After completion of the Morris water maze test, the brain of each rat was perfusion-fixed with 4% paraformaldehyde. The details are as follows.

[2] = test system: hippocampal CA1 neuronal cells; assay: HE staining of hippocampus CA1, degree of neuronal death; assay type: in vivo, rat; settings: HE-stained specimens after 28 days of administration; arundic acid 30, taltirelin 10, combination 10+3 mg/kg/day
Method: After completion of the Transfer test, the rats were anesthetized, and the chest cavity was opened to expose the heart. A ventricle was incised to insert a catheter from the heart to the carotid artery, and 50 mL or more of heparinized physiological saline was perfused. Subsequently, 50 mL or more of 4% paraformaldehyde phosphate buffer was perfused. The perfusion procedures were performed with ligation of the main artery. After perfusion-fixation, the brain was removed and immersion-fixed in 4% paraformaldehyde phosphate buffer.
20-μm serial thick frozen sections were prepared from this brain using a cryostat. Alternating serial sections were stained with hematoxylin-eosin. The degree of neuronal death in the stained tissue was semi-quantitatively evaluated under an optical microscope.

reactive astrocytes = settings: Patent Literature 2; cited from earlier work
[3] = test system: patients with Alzheimer's disease or patients with cerebrovascular dementia; settings: reported in literature; cited from earlier work
[4] = test system: rats with anoxia-induced amnesia; settings: Non-patent Literature 1; cited from earlier work
[5] = test system: rats with lesioned bilateral regions including the ventral globus pallidus, substantia innominata, and preoptic area (BFs); settings: Non-patent Literature 1; cited from earlier work

| Compound | Residence time in Zone 1 ([1]; Mean ± S.E.) [s] | Residence time in Zone 1 (%) ([1]; Mean ± S.E.) | Residence time in Zone 2 ([1]; Mean ± S.E.) [s] | Residence time in Zone 2 (%) ([1]; Mean ± S.E.) | Residence time in Zone 3 (%) ([1]; Mean ± S.E.) | Residence time in Zone 4 ([1]; Mean ± S.E.) [s] | Residence time in Zone 4 (%) ([1]; Mean ± S.E.) | Transfer test Platform Crossing Times ([1]; Mean ± S.E.) | Transfer test Residence time in Zone 3 ([1]; Mean ± S.E.) [s] | Residence time in Zone 3 ([1]; Mean ± S.E.) [s] | Residence time in Zone 3 ([1]; individual rat, 3 mg/kg/day) | Residence time in Zone 1 ([1]; individual rat, 3 mg/kg/day) | Residence time in Zone 1 (%) ([1]; individual rat, 3 mg/kg/day) | Residence time in Zone 2 ([1]; individual rat, 3 mg/kg/day) | Residence time in Zone 2 (%) ([1]; individual rat, 3 mg/kg/day) | Residence time in Zone 3 (%) ([1]; individual rat, 3 mg/kg/day) | Residence time in Zone 4 ([1]; individual rat, 3 mg/kg/day) | Residence time in Zone 4 (%) ([1]; individual rat, 3 mg/kg/day) | Transfer test Platform Crossing Times ([1]; individual rat, 3 mg/kg/day) | Hippocampal CA1 neuronal cell death / regeneration, in words [2] | also measured |
| --- | --- | --- | --- | --- | --- | --- | --- | --- | --- | --- | --- | --- | --- | --- | --- | --- | --- | --- | --- | --- | --- |
| CCCCCC[C@@H](CCC)C(=O)O [Arundic acid, (R)-(−)-2-propyloctanoic acid] | 41.6 ± 8.7 | 22.8 ± 4.3 | 42.0 ± 10.9 | 23.0 ± 5.5 | 34.6 ± 5.1 | 34.9 ± 83 | 19.6 ± 4.7 | 5.5 ± 1.4 | 62 ± 8.4 | 61.9 ± 8.4 | 82.9 s and 66.0 s and 43.6 s and 55.2 s | 24.0 s and 32.5 s and 63.9 s and 45.8 s | 13.3% and 19.3% and 33.3% and 25.4% | 16.9 s and 34.4 s and 68.2 s and 48.3 s | 9.4% and 20.4% and 35.5% and 26.8% | 46.0% and 39.1% and 22.7% and 30.6% | 56.5 s and 35.7 s and 16.4 s and 31.0 s | 31.3% and 21.2% and 8.5% and 17.2% | 6 and 9 and 2 and 5 | promoted regeneration of hippocampal CA1 neuronal cells | GABAA receptor responsiveness (reactive astrocytes): GABAA receptor responsiveness is recovered |
| CN1C(=O)C[C@@H](C(=O)N[C@@H](Cc2c[nH]cn2)C(=O)N2CCC[C@H]2C(N)=O)NC1=O [Taltirelin, N-[(4S)-1-methyl-2,6-dioxohexahydropyrimidine-4-carbonyl]-L-histidyl-L-prolinamide] | 39.3 ± 5.4 | 21.7 ± 3.0 | 34.2 ± 10.3 | 19.0 ± 5.8 | 31.6 ± 2.4 | 50.2 ± 8.5 | 27.6 ± 4.6 | 5.3 ± 1.4 | 57 ± 4.1 | 57.1 ± 4.1 | 58.5 s and 66.9 s and 47.1 s and 56 s | 24.5 s and 44.4 s and 38.6 s and 49.7 s | 13.6% and 24.8% and 21.2% and 27.3% | 63 s and 30.4 s and 29.6 s and 14.1 s | 35.1% and 17.0% and 16.2% and 7.7% | 32.6% and 37.3% and 25.8% and 30.7% | 33.6 s and 37.5 s and 67 s and 62.5 s | 18.7% and 20.9% and 36.8% and 34.3% | 8 and 7 and 4 and 2 | shedding was observed | Improvement effect compared with TRH [3]: higher improvement effect thereon than TRH; Memory retrieval, one-trial passive avoidance learning test [4]: improve memory retrieval; Memory retrieval, active avoidance learning test [5]: improve memory retrieval |
